Measurements: US20240366629A1, “Porphyrin Complexes as Antidotes for Carbon Monoxide Exposure and Methods of Use for Same” (priority 2021, published 2024)

Experiments:
[1] = test system: CO-treated RBCs; test: Time-course CO removal from CO-treated RBCs (absorbance at 420 nm); assay type: cell-based, bovine; settings: quiescent suspension of CO-poisoned RBCs in buffered dithionite solution, 1 equiv of 6 (reduced in situ to 7)
Procedure: Time-Course CO Removal From CO-Treated RBCs Defibrinated bovine blood (Hemostat Laboratories) was diluted with PBS containing 5.7 mM sodium dithionite. CO was bubbled through this suspension for 5 s. This mixture was centrifuged for 30 s at 760×g. The supernatant was discarded, and the pellet was washed with PBS containing 5.7 mM sodium dithionite. This washing was repeated three more times to remove excess CO. An aliquot of the stock suspension of CO-treated RBCs was added to a quartz cuvette containing 1 mL of DI water to lyse the cells. The concentration of COHb was assessed by measuring the absorbance at 420 nm (ε=10^5.63) of this lysate. For time-course CO removal, an aliquot of the stock suspension of CO-treated RBCs was diluted to 1 mL with PBS containing 5.7 mM sodium dithionite. A full equivalent of compound 6 (which is reduced in situ to 7) was added, the suspension was rapidly mixed, and absorbance at 420 nm was monitored continuously (FIG. 12).

[2] = Solubility in water and methanol

## Sodium 5,10,15,20-tetrakis(2,6-diphenyl-4-(sulfonate)phenyl)porphyrinatohydroxoiron(III) [Compound 6]
[1]
  time to essentially complete reaction (decrease of COHb absorbance at 420 nm): ≤ 3 min

## 5,10,15,20-tetrakis(2,6-di(3,5-difluoro)phenyl-4-(trimethylsilyl) phenyl) porphyrin [Compound 2-2b]
[2]
  solubility in water and methanol: completely insoluble

## O=S(=O)([O-])c1cc(-c2ccccc2)c(-c2c3nc(c(-c4c(-c5ccccc5)cc(S(=O)(=O)[O-])cc4-c4ccccc4)c4ccc([nH]4)c(-c4c(-c5ccccc5)cc(S(=O)(=O)[O-])cc4-c4ccccc4)c4nc(c(-c5c(-c6ccccc6)cc(S(=O)(=O)[O-])cc5-c5ccccc5)c5ccc2[nH]5)C=C4)C=C3)c(-c2ccccc2)c1.[Na+].[Na+].[Na+].[Na+] [Compound 2-3a, sodium 5,10,15,20-tetrakis(2,6-diphenyl-4-(sulfonato)phenyl)porphyrin]
[2]
  solubility in water and methanol: readily dissolved

## O=S(=O)([O-])c1cc(-c2cc(F)cc(F)c2)c(-c2c3nc(c(-c4c(-c5cc(F)cc(F)c5)cc(S(=O)(=O)[O-])cc4-c4cc(F)cc(F)c4)c4ccc([nH]4)c(-c4c(-c5cc(F)cc(F)c5)cc(S(=O)(=O)[O-])cc4-c4cc(F)cc(F)c4)c4nc(c(-c5c(-c6cc(F)cc(F)c6)cc(S(=O)(=O)[O-])cc5-c5cc(F)cc(F)c5)c5ccc2[nH]5)C=C4)C=C3)c(-c2cc(F)cc(F)c2)c1.[Na+].[Na+].[Na+].[Na+] [Compound 2-3b, sodium 5,10,15,20-tetrakis(2,6-di(3,5-difluoro)phenyl-4-(sulfonato)phenyl)porphyrin]
[2]
  solubility in water and methanol: readily dissolved

## C[Si](C)(C)c1cc(-c2ccccc2)c(-c2c3nc(c(-c4c(-c5ccccc5)cc([Si](C)(C)C)cc4-c4ccccc4)c4ccc([nH]4)c(-c4c(-c5ccccc5)cc([Si](C)(C)C)cc4-c4ccccc4)c4nc(c(-c5c(-c6ccccc6)cc([Si](C)(C)C)cc5-c5ccccc5)c5ccc2[nH]5)C=C4)C=C3)c(-c2ccccc2)c1 [Compound 2-2a, 5,10,15,20-tetrakis(2,6-diphenyl-4-(trimethylsilyl)phenyl) porphyrin]
[2]
  solubility in water and methanol: completely insoluble
